Test system: Endogenous Huntingtin Protein
Test: Endogenous Huntingtin Protein Assay (ELISA-based Meso Scale Discovery electrochemiluminescence)
Format: cell-based
Conditions: MSD electrochemiluminescence, Table 1
Summary of the method: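 Sandwich MSD electrochemiluminescence immunoassay. Capture used MW1 (expanded polyglutamine) or MAB2166 antibody coated at 1 μg/mL overnight at 4 °C. Samples were bound overnight at 4 °C, then a rabbit monoclonal detection antibody and SULFO-TAG anti-rabbit, each at 0.25 μg/mL, were applied for 1 h at room temperature.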

| SMILES | IC50 [nM] |
| --- | --- |
| Cn1ncc2cc(-c3ccc(-c4cnc(N5CCC(NC(C)(C)C)C5)nn4)c(O)c3)ccc21 (stereo not drawn) [Cpd 208, 2-{3-[3-(tert-butylamino)pyrrolidin-l-yl]-1,2,4-triazin-6-yl}-5-(1-methyl-1H-indazol-5-yl)phenol] | 100 to 500 |
| CC(C)(C)NC1CCN(c2ncc(-c3ccc(-c4ncccn4)cc3O)nn2)C1 (stereo not drawn) [Cpd 209, 2-{3-[3-(tert-butylamino)pyrrolidin-l-yl]-1,2,4-triazin-6-yl}-5-(pyrimidin-2-yl)phenol] | 1000 to 3000 |
| Cn1ncc(-c2ccc(-c3cnc(N4CCC(NC(C)(C)C)C4)nn3)c(O)c2)n1 (stereo not shown) [Cpd 210, 2-{3-[3-(tert-butylamino)pyrrolidin-1-yl]-1,2,4-triazin-6-yl}-5-(2-methyl-2H-1,2,3-triazol-4-yl)phenol] | ≤ 100 |
| Cn1nnc(-c2ccc(-c3cnc(N4CCC(NC(C)(C)C)C4)nn3)c(O)c2)n1 (stereo not shown) [Cpd 211, 2-{3-[3-(tert-butylamino)pyrrolidin-1-yl]-1,2,4-triazin-6-yl}-5-(2-methyl-2H-tetrazol-5-yl)phenol] | ≤ 100 |
| CC(C)(C)NC1CCCN(c2ncc(-c3ccc(-c4cn[nH]c4)cc3O)nn2)C1 (stereo not shown) [Cpd 212, 2-{3-[3-(tert-butylamino)piperidin-1-yl]-1,2,4-triazin-6-yl}-5-(1H-pyrazol-4-yl)phenol] | 100 to 500 |
| CC(C)NC1CCN(c2ncc(-c3ccc(-c4ccn(C)n4)cc3O)nn2)C1 (stereo not shown) [Cpd 213, 5-(1-methyl-1H-pyrazol-3-yl)-2-(3-{3-[(propan-2-yl)amino]pyrrolidin-1-yl}-1,2,4-triazin-6-yl)phenol] | 1000 to 3000 |
| Cn1ccc(-c2ccc(-c3cnc(N4CCC(NC(C)(C)C)C4)nn3)c(O)c2)cc1=O (stereo not shown) [Cpd 214, 4-(4-{3-[3-(tert-butylamino)pyrrolidin-1-yl]-1,2,4-triazin-6-yl}-3-hydroxyphenyl)-1-methylpyridin-2(1H)-one] | ≤ 100 |
| Cn1nnc2nc(-c3ccc(-c4cnc(N5CCC(NC(C)(C)C)C5)nn4)c(O)c3)ccc21 (stereo not shown) [Cpd 215, 2-{3-[3-(tert-butylamino)pyrrolidin1-yl]-1,2,4-triazin-6-yl}-5-(1-methyl-1H-[1,2,3]triazolo[4,5-b]pyridin-5-yl)phenol] | 100 to 500 |
| Cn1cnc(-c2ccc(-c3cnc(N4CCC(NC(C)(C)C)C4)nn3)c(O)c2)cc1=O (stereo not shown) [Cpd 216, 6-(4-{3-[3-(tert-butylamino)pyrrolidin-1-yl]-1,2,4-triazin-6-yl}-3-hydroxyphenyl)-3-methylpyrimidin-4(3H)-one] | 100 to 500 |
| COc1cc(-c2ccc(-c3cnc(N4CCC(NC(C)(C)C)C4)nn3)c(O)c2)ncn1 (stereo not shown) [Cpd 217, 2-{3-[3-(tert-butylamino)pyrrolidin-1-yl]-1,2,4-triazin-6-yl}-5-(6-methoxypyrimidin-4-yl)phenol] | ≤ 100 |
| CNC1CCN(c2ncc(-c3ccc(-n4nccn4)cc3O)nn2)C1 (stereo not shown) [Cpd 218, 2-{3-[3-(methylamino)pyrrolidin-1-yl]-1,2,4-triazin-6-yl}-5-(2H-1,2,3-triazol-2-yl)phenol] | 100 to 500 |
| CNC1CCN(c2ncc(-c3ccc(-n4cc(F)cn4)cc3O)nn2)C1 (stereo not shown) [Cpd 219, 5-(4-fluoro-1H-pyrazol-1-yl)-2-{3-[3-(methylamino)pyrrolidin-1-yl]-1,2,4-triazin-6-yl}phenol] | 100 to 500 |
| CNC1CCN(c2ncc(-c3ccc(-n4ccnc4)cc3O)nn2)C1 (stereo not shown) [Cpd 220, 5-(1H-imidazol-1-yl)-2-{3-[3-(methylamino)pyrrolidin-1-yl]-1,2,4-triazin-6-yl}phenol] | > 500 |
| Cn1ncc2cc(-c3ccc(-c4cnc(N5CCC(NC(C)(C)C)C5)nn4)c(O)c3)cnc21 (stereo not shown) [Cpd 221, 2-{3-[3-(tert-butylamino)pyrrolidin-1-yl]-1,2,4-triazin-6-yl}-5-(1-methyl-1H-pyrazolo[3,4-b]pyridin-5-yl)phenol] | > 500 |
| CN(c1ncc(-c2ccc(-c3cc4cnn(C)c4cn3)cc2O)nn1)C1CC(C)(C)NC(C)(C)C1 [Cpd 222, 5-(1-methyl-1H-pyrazolo[3,4-c]pyridin-5-yl)-2-{3-[methyl(2,2,6,6-tetramethylpiperidin-4-yl)amino]-1,2,4-triazin-6-yl}phenol] | ≤ 100 |
| CN1CCC2(CC1)CN(c1ncc(-c3ccc(-c4ccc5c(cnn5C)c4)cc3O)nn1)C2 [Cpd 223] | 100 to 500 |
| CN1CCC2(CC1)CN(c1ncc(-c3ccc(-c4cnc5c(cnn5C)c4)cc3O)nn1)C2 [Cpd 224, 2-[3-(7-methyl-2,7-diazaspiro[3.5]nonan-2-yl)-1,2,4-triazin-6-yl]-5-(1-methyl-1H-pyrazolo[3,4-b]pyridin-5-yl)phenol] | 1000 to 3000 |
| CC(C)(C)NC1CCN(c2ncc(-c3ccc(-c4c[nH]nn4)cc3O)nn2)C1 (stereo not shown) [Cpd 225, 2-{3-[3-(tert-butylamino)pyrrolidin-1-yl]-1,2,4-triazin-6-yl}-5-(1H-1,2,3-triazol-4-yl)phenol] | ≤ 100 |
| CN1CCC2(CC1)CN(c1ncc(-c3ccc(-c4cnn(C)c4)cc3O)nn1)C2 [Cpd 226, 2-[3-(7-methyl-2,7-diazaspiro[3.5]nonan-2-yl)-1,2,4-triazin-6-yl]-5-(1-methyl-1H-pyrazol-4-yl)phenol] | ≤ 100 |

| SMILES | IC50 [nM] |
| --- | --- |
| CC(C)NC1CCN(c2ncc(-c3ccc(-c4ccn(C)c(=O)c4)cc3O)nn2)C1 (stereo not shown) [Cpd 227, 4-[3-hydroxy-4-(3-{3-[(propan-2-yl)amino]pyrrolidin-1-yl}-1,2,4-triazin-6-yl)phenyl]-1-methylpyridin-2(1H)-one] | ≤ 100 |
| Cc1cn(-c2ccc(-c3cnc(N4CC5(CCN(C)CC5)C4)nn3)c(O)c2)cn1 [Cpd 228, 2-[3-(7-methyl-2,7-diazaspiro[3.5]nonan-2-yl)-1,2,4-triazin-6-yl]-5-(4-methyl-1H-imidazol-1-yl)phenol] | ≤ 100 |
| CN1CCC2(CC1)CN(c1ncc(-c3ccc(-n4cc(F)cn4)cc3O)nn1)C2 [Cpd 229, 5-(4-fluoro-1H-pyrazol-1-yl)-2-[3-(7-methyl-2,7-diazaspiro[3.5]nonan-2-yl)-1,2,4-triazin-6-yl]phenol] | > 500 |
| CN1CCC2(CC1)CN(c1ncc(-c3ccc(-n4cnc(F)c4)cc3O)nn1)C2 [Cpd 230, 5-(4-fluoro-1H-imidazol-1-yl)-2-[3-(7-methyl-2,7-diazaspiro[3.5]nonan-2-yl)-1,2,4-triazin-6-yl]phenol] | > 500 |
| CN1CCC2(CC1)CN(c1ncc(-c3ccc(-n4ccnc4)cc3O)nn1)C2 [Cpd 231, 5-(1H-imidazol-1-yl)-2-[3-(7-methyl-2,7-diazaspiro[3.5]nonan-2-yl)-1,2,4-triazin-6-yl]phenol] | 100 to 500 |
| CN1CCC2(CC1)CN(c1ncc(-c3ccc(-n4nccn4)cc3O)nn1)C2 [Cpd 232, 2-[3-(7-methyl-2,7-diazaspiro[3.5]nonan-2-yl)-1,2,4-triazin-6-yl]-5-(2H-1,2,3-triazol-2-yl)phenol] | ≤ 100 |
| CN1CCC2(CC1)CN(c1ncc(-c3ccc(-c4ccn(C)n4)cc3O)nn1)C2 [Cpd 233, 2-[3-(7-methyl-2,7-diazaspiro[3.5]nonan-2-yl)-1,2,4-triazin-6-yl]-5-(1-methyl-1H-pyrazol-3-yl)phenol] | 1000 to 3000 |
| CC(C)NC1CCN(c2ncc(-c3ccc(-c4cc(=O)n(C)cn4)cc3O)nn2)C1 (stereo not shown) [Cpd 234, 6-[3-hydroxy-4-(3-{3-[(propan-2-yl)amino]pyrrolidin-1-yl}-1,2,4-triazin-6-yl)phenyl]-3-methylpyrimidin-4(3H)-one] | 100 to 500 |
| CC(C)NC1CCN(c2ncc(-c3ccc(-c4cn[nH]c4F)cc3O)nn2)C1 (stereo not shown) [Cpd 235, 5-(5-fluoro-1H-pyrazol-4-yl)-2-(3-{3-[(propan-2-yl)amino]pyrrolidin-1-yl}-1,2,4-triazin-6-yl)phenol] | ≤ 100 |
| CC(C)NC1CCN(c2ncc(-c3ccc(-c4cnn(C)n4)cc3O)nn2)C1 (stereo not shown) [Cpd 236, 5-(2-methyl-2H-1,2,3-triazol-4-yl)-2-(3-{3-[(propan-2-yl)amino]pyrrolidin-1-yl}-1,2,4-triazin-6-yl)phenol] | ≤ 100 |
| CC(C)NC1CCN(c2ncc(-c3ccc(-c4ncns4)cc3O)nn2)C1 (stereo not shown) [Cpd 237, 2-(3-{3-[(propan-2-yl)amino]pyrrolidin-1-yl}-1,2,4-triazin-6-yl)-5-(1,2,4-thiadiazol-5-yl)phenol] | 100 to 500 |
| Cc1cn(-c2ccc(-c3cnc(N[C@H]4CC(C)(C)NC(C)(C)[C@H]4F)nn3)c(O)c2)cn1 [Cpd 239, 2-{3-{[(3S,4S)-3-fluoro-2,2,6,6-tetramethylpiperidin-4-yl]amino}-1,2,4-triazin-6-yl)-5-(4-methyl-1H-imidazol-1-yl)phenol] | ≤ 100 |
| CC1(C)C[C@H](Nc2ncc(-c3ccc(-n4cnc(F)c4)cc3O)nn2)[C@H](F)C(C)(C)N1 [Cpd 240, 5-(4-fluoro-1H-imidazol-1-yl)-2-(3-{[(3S,4S)-3-fluoro-2,2,6,6-tetramethylpiperidin-4-yl]amino}-1,2,4-triazin-6-yl)phenol] | ≤ 100 |
| CN1CCC2(CC1)CN(c1ncc(-c3ccc(-c4ccn(C)c(=O)c4)cc3O)nn1)C2 [Cpd 241, 4-{3-hydroxy-4-[3-(7-methyl-2,7-diazaspiro[3.5]nonan-2-yl)-1,2,4-triazin-6-yl]phenyl}-1-methylpyridin-2(1H)-one] | ≤ 100 |
| CN1CCC2(CC1)CN(c1ncc(-c3ccc(-c4cnn(C)n4)cc3O)nn1)C2 [Cpd 242, 2-[3-(7-methyl-2,7-diazaspiro[3.5]nonan-2-yl)-1,2,4-triazin-6-yl]-5-(2-methyl-2H-1,2,3-triazol-4-yl)phenol] | ≤ 100 |
| COc1cc(-c2ccc(-c3cnc(N4CC5(CCN(C)CC5)C4)nn3)c(O)c2)ncn1 [Cpd 243, 5-(6-methoxypyrimidin-4-yl)-2-[3-(7-methyl-2,7-diazaspiro[3.5]nonan-2-yl)-1,2,4-triazin-6-yl]phenol] | ≤ 100 |
| CN1CCC2(CC1)CN(c1ncc(-c3ccc(-c4ncccn4)cc3O)nn1)C2 [Cpd 244, 2-[3-(7-methyl-2,7-diazaspiro[3.5]nonan-2-yl)-1,2,4-triazin-6-yl]-5-(pyrimidin-2-yl)phenol] | 3000 to 9000 |
| CN1CCC2(CC1)CN(c1ncc(-c3ccc(-c4c[nH]nn4)cc3O)nn1)C2 [Cpd 245, 2-[3-(7-methyl-2,7-diazaspiro[3.5]nonan-2-yl)-1,2,4-triazin-6-yl]-5-(1H-1,2,3-triazol-4-yl)phenol] | ≤ 100 |

Reference: patent US11780839B2, “Compounds for treating Huntington's disease” (PTC THERAPEUTICS, INC., priority 2018, dated 2023)
